Results reported in patent US20250331542A1, “SWEETENER COMPOSITIONS” (Firmenich SA, priority 2022, published 2025).

Tests used:
Format in all cases: in vivo, human
[1] = system: sweet taste of a water solution containing 4% sucrose; assay: Sensory panel, sweet taste in sucrose solution; conditions: for Intensity (sweet): Sucrose solution; for sweet enhancing effect for a sucrose solution (in words): summary of Tables 1-12
Description: (§1) Methodology: A panel consisted of 8 to 25 trained panelists evaluating the samples for taste properties (sweet, and/or sweet off-taste such as lingering) on a scale of −5 to 5 (−5 denoted strong masking effect and 5 denoted strong enhancing effect, 0 being the intensity of a reference water solution containing 4% sucrose or 0.02% SG95 stevia product).

[2] = system: sweet taste of a water solution containing 0.02% SG95 stevia product; assay: Sensory panel, sweet taste in SG95 stevia product solution; conditions: for Intensity (sweet): scale -5 to 5, 0 = reference 0.02% SG95; for sweet enhancing effect for an SG95 stevia product solution (in words): summary of Tables 5-6
Description: as §1

[3] = system: lingering (sweet off-taste) of a water solution containing 0.02% SG95 stevia product; assay: Sensory panel, lingering off-taste in SG95 stevia product solution
Description: as §1

[4] = dosage 10 ppm, scale -5 (strong masking) to 5 (strong enhancing), 0 = reference 4% sucrose
[5] = dosage 40 ppm, scale -5 to 5, 0 = reference 4% sucrose

Compound	Intensity (sweet) [1, 4]	sweet enhancing effect for a sucrose solution (in words) [1]	other results
O=C1CC(c2ccc(O)cc2)Oc2cc(O)c([C@@H]3O[C@H](CO)[C@@H](O)[C@H](O)[C@H]3O)c(O)c21 (stereo partly drawn) [Compound 1, naringenin 6-C-β-D glucoside]	0.49	significant sweet enhancing effect	–
O=C1CC(c2ccc(O)c(O)c2)Oc2cc(O)c([C@@H]3O[C@H](CO)[C@@H](O)[C@H](O)[C@H]3O)c(O)c21 (stereo partly drawn) [Compound 4, eriodictyol 6-C-β-D glucoside]	0.64	significant sweet enhancing effect	–
COc1ccc(C2CC(=O)c3c(cc(O)c([C@@H]4O[C@H](CO)[C@@H](O)[C@H](O)[C@H]4O)c3O)O2)cc1O (stereo partly drawn) [Compound 7, hesperetin 6-C-β-D glucoside]	0.57	significant sweet enhancing effect	–
COc1ccc(C2CC(=O)c3c(O)c([C@@H]4O[C@H](CO)[C@@H](O)[C@H](O)[C@H]4O)c(O)c([C@@H]4O[C@H](CO)[C@@H](O)[C@H](O)[C@H]4O)c3O2)cc1O (stereo partly drawn) [Compound 9, hesperetin 6,8-di-C-β-D glucoside]	0.31	sweet enhancing effect	–
O=C(CCc1ccc(O)cc1)c1c(O)cc(O[C@@H]2O[C@H](CO)[C@@H](O)[C@H](O)[C@H]2O)c([C@@H]2O[C@H](CO)[C@@H](O)[C@H](O)[C@H]2O)c1O [Compound 13, trilobatin 3′-C-β-D glucoside]	0.67	significant sweet enhancing effect	–
C[C@@H]1O[C@@H](c2c(O)cc3c(c2O)C(=O)CC(c2ccc(O)cc2)O3)[C@H](O)[C@H](O)[C@H]1O (stereo partly drawn) [Compound 15, naringenin 6-C-rhamnoside]	–	sweet enhancing effect	–
CC1OC(c2c(O)cc3c(c2O)C(=O)CC(c2ccc(O)cc2)O3)C(O)C(O)C1O (stereo not drawn) [Compound 16, naringenin 6-C-rhamnoside]	–	sweet enhancing effect	–
O=c1cc(-c2ccc(O)c(O)c2)oc2cc(O)c([C@@H]3O[C@H](CO)[C@@H](O)[C@H](O)[C@H]3O)c(O)c12 [Compound 17, Isoorientin]	–	sweet enhancing effect	Intensity (sweet) [1, 5]: 0.25
O=c1cc(-c2ccc(O)c(O)c2)oc2c([C@@H]3O[C@H](CO)[C@@H](O)[C@H](O)[C@H]3O)c(O)cc(O)c12 [Compound 18, orientin]	–	significant sweet enhancing effect	Intensity (sweet) [1, 5]: 0.50
O=C(CCc1ccc(O)c(O)c1)c1c(O)cc(O)c([C@@H]2O[C@H](CO)[C@@H](O)[C@H](O)[C@H]2O)c1O [Compound 20, aspalathin]	0.42	significant sweet enhancing effect	–
O=C(CCc1ccc(O)cc1)c1c(O)cc(O)c([C@@H]2O[C@H](CO)[C@@H](O)[C@H](O)[C@H]2O)c1O [Compound 21, nothofagin]	0.46	significant sweet enhancing effect	Intensity (sweet) ([2]; dosage 20 ppm): 0.25; sweet enhancing effect for an SG95 stevia product solution (in words) [2]: sweet enhancing effect
O=C(CCc1ccc(O)cc1)c1c(O)c([C@@H]2O[C@H](CO)[C@@H](O)[C@H](O)[C@H]2O)c(O)c([C@@H]2O[C@H](CO)[C@@H](O)[C@H](O)[C@H]2O)c1O [Compound 22, Phloretin-3′,5′-di-C-β-D-glucoside]	–	sweet enhancing effect	Intensity (lingering) ([3]; dosage 40 ppm, scale -5 (strong masking) to 5, 0 = reference 0.02% SG95): −0.33; off taste masking effect for an SG95 stevia product solution (in words) ([3]; lingering): lingering masking; Intensity (sweet) [1, 5]: 0.23; Intensity (sweet) ([2]; dosage 40 ppm): 0.25; sweet enhancing effect for an SG95 stevia product solution (in words) [2]: sweet enhancing effect
O=c1cc(-c2ccc(O)cc2)oc2c([C@@H]3O[C@H](CO)[C@@H](O)[C@H](O)[C@H]3O)c(O)cc(O)c12 [Compound 23]	0.50	significant sweet enhancing effect	–
